From patent US12447153B2, “HER2 mutation inhibitors” (Array BioPharma Inc., priority 2021, dated 2025) come the findings set out here.

One test deals with EGFR (Homo sapiens (Human), UniProt P00533). Description: ErbB Enzyme Assay (HTRF KinEASE-TK), Assay 3. It is filed as biochemical. Here is the method: The kinases were incubated with 250 nM TK-substrate biotin (CisBio, part of cat #62TKOPEC) at 1 mM ATP along with test compounds in a buffer consisting of 25 mM HEPES, pH 7.4, 10 mM MgCl2, 0.01% Triton X-100, and 2% DMSO in a volume of 8 μL. […] After 30-minute incubation at 22° C., the reaction was quenched by adding 8 μL of quench solution containing 62.5 nM Sa-XL665 and 0.25×TK-Ab-Cryptate in HTRF detection buffer (all from CisBio, part of cat #62TKOPEC). […] A 4-parameter logistic curve was fit to the POC values as a function of the concentration of compound, and the IC50 value was the point where the best-fit curve crossed 50 POC.

The next test concerns the target EGFR wild type (EGFR WT) (Homo sapiens (Human), UniProt P00533). Briefly: Cellular Phosphorylation Assay, Assay 5 (EGF-stimulated EGFR phosphorylation, NIH 3T3 cells). The class given is cell-based. Here is the method:
(§1) NIH 3T3 cells were engineered to express ErbB2 with Exon 20 YVMA insertion (HER2-YVMA (SEQ ID NO: 2); Assay 4) or EGFR wild type (EGFR WT; Assay 5) with constructs obtained from GenScript and grown in DMEM supplemented with 10% fetal bovine serum and 15 μg/ml blasticidin. […] Serially diluted compounds were added to the plates for 1 hour at 37° C./5% CO2. EGFR WT cells were stimulated with 100 ng/ml rEGF for an additional 10 minutes at 37° C./5% CO2.
(§2) After compound incubation, medium was removed from the cells, which were then fixed in 3.7% formaldehyde in PBS at room temperature for 20 minutes. Following a wash with PBS, cells were permeabilized with 100% methanol at room temperature for 10 minutes. Cells were then washed with PBS/0.05% Tween-20 and blocked with Odyssey blocking buffer (LI-COR Biosciences) for at least 1 hour at room temperature. Antibodies to phosphorylated ErbB2 (Y1196, Cell Signaling #6942) or phosphorylated EGFR (Y1068, Cell Signaling #3777) and GAPDH (Millipore #MAB374) were added to the cells in blocking buffer containing 0.05% azide and incubated overnight at 4° C. After washing with PBS/0.05% Tween-20, the cells were incubated with fluorescently labeled secondary anti-rabbit antibody (LiCOR, IRDye 800CW #926-32211) and anti-mouse antibody (Molecular Probes, Alexa Fluor 680 #A21058) for 1 hour at room temperature in the dark. Cells were then washed and analyzed for fluorescence at both wavelengths using the Odyssey Infrared Imaging System (LI-COR Biosciences). Phosphorylated ErbB2 and EGFR signal was normalized to GAPDH signal to generate curves and calculate IC50 values.

Test [1] has as its target ErbB2 with Exon 20 YVMA insertion (HER2-YVMA) (Homo sapiens (Human), UniProt P04626, INS775YVMA). Briefly: Cellular Phosphorylation Assay, Assay 4 (constitutive ErbB2 phosphorylation, NIH 3T3 cells). The class given is cell-based. To be noted: ErbB2 YVMA phosphorylation. Here is the method: as §1, §2
The target of a further test is ErbB2 WT (Homo sapiens (Human), UniProt P04626). Description: ErbB Enzyme Assay (HTRF KinEASE-TK), Assay 2. It is filed as biochemical. The note with it: ErbB2 WT enzyme. Here is the method: The kinases were incubated with 250 nM TK-substrate biotin (CisBio, part of cat #62TKOPEC) at 1 mM ATP along with test compounds in a buffer consisting of 25 mM HEPES, pH 7.4, 10 mM MgCl2, 0.01% Triton X-100, and 2% DMSO in a volume of 8 μL. […] After 30-minute incubation at 22° C., the reaction was quenched by adding 8 μL of quench solution containing 62.5 nM Sa-XL665 and 0.25×TK-Ab-Cryptate in HTRF detection buffer (all from CisBio, part of cat #62TKOPEC).

The mark [2] stands for this setting: cellular EGFR WT phosphorylation, EGF-stimulated.
Where [3] appears, read: EGF-stimulated EGFR WT phosphorylation.

Chain of EGFR wild type (EGFR WT) (P00533 25-1210): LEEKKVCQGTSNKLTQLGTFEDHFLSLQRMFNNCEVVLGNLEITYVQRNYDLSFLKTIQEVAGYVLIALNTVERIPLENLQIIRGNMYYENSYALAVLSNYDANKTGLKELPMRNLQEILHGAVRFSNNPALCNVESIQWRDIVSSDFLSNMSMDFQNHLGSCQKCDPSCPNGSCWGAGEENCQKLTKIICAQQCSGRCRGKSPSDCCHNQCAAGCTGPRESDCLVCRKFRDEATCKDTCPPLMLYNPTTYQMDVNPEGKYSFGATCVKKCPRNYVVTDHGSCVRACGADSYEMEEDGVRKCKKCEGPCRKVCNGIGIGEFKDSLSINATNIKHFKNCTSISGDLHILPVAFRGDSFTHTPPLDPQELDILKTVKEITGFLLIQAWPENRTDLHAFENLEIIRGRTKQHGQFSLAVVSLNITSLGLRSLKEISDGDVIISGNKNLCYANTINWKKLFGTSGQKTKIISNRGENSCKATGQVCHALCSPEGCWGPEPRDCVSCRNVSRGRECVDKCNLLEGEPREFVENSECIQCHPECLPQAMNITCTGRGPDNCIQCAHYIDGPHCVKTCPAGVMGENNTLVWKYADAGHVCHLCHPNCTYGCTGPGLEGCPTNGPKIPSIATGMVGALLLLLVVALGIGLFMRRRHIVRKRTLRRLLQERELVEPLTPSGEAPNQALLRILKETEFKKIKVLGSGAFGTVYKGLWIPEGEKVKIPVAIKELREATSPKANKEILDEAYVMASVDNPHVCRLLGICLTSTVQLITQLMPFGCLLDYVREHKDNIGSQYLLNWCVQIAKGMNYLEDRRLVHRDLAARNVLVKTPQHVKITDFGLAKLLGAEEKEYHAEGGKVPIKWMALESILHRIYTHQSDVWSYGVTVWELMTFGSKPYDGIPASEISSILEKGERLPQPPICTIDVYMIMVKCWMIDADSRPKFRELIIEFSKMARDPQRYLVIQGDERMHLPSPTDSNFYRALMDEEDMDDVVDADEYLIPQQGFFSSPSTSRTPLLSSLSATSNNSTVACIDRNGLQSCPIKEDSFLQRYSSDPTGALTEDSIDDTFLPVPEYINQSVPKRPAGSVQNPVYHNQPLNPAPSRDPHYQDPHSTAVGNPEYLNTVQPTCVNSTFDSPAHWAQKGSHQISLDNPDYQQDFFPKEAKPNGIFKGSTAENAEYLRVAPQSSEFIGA
Chain of EGFR (P00533 25-1210): as above
Chain of ErbB2 WT (P04626 23-1255): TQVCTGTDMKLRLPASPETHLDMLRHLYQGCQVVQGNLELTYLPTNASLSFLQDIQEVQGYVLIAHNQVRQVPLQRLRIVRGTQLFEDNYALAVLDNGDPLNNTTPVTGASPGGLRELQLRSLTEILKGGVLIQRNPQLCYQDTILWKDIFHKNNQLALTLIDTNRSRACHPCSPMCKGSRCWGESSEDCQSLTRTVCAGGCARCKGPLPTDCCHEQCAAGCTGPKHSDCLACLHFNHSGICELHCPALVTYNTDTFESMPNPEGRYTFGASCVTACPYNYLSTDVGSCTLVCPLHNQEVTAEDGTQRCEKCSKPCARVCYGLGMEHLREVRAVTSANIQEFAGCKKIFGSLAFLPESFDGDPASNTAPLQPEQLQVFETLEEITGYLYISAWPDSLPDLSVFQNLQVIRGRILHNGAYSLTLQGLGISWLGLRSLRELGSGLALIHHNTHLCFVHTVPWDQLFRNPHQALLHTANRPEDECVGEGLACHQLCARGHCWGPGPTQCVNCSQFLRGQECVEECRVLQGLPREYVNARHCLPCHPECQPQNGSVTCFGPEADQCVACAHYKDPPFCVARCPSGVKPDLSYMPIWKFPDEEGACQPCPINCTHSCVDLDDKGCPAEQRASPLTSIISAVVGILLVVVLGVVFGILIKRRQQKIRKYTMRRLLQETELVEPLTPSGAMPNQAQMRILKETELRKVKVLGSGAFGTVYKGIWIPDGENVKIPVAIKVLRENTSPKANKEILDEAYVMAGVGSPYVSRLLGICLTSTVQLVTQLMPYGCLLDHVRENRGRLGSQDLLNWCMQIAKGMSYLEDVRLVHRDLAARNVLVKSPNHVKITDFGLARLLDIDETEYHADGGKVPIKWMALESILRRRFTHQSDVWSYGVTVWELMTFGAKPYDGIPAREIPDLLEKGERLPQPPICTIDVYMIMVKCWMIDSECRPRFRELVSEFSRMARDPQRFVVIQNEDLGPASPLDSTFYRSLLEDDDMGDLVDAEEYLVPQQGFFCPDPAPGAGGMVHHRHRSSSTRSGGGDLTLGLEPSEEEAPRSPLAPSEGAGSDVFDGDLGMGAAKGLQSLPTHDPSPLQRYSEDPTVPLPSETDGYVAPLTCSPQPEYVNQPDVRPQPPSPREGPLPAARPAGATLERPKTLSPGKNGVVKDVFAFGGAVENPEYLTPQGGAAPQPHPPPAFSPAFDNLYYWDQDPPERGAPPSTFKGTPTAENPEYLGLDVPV
Chain of ErbB2 with Exon 20 YVMA insertion (HER2-YVMA) (P04626 other isoform, or with tags, fused parts or gaps ins YVMA behind 775): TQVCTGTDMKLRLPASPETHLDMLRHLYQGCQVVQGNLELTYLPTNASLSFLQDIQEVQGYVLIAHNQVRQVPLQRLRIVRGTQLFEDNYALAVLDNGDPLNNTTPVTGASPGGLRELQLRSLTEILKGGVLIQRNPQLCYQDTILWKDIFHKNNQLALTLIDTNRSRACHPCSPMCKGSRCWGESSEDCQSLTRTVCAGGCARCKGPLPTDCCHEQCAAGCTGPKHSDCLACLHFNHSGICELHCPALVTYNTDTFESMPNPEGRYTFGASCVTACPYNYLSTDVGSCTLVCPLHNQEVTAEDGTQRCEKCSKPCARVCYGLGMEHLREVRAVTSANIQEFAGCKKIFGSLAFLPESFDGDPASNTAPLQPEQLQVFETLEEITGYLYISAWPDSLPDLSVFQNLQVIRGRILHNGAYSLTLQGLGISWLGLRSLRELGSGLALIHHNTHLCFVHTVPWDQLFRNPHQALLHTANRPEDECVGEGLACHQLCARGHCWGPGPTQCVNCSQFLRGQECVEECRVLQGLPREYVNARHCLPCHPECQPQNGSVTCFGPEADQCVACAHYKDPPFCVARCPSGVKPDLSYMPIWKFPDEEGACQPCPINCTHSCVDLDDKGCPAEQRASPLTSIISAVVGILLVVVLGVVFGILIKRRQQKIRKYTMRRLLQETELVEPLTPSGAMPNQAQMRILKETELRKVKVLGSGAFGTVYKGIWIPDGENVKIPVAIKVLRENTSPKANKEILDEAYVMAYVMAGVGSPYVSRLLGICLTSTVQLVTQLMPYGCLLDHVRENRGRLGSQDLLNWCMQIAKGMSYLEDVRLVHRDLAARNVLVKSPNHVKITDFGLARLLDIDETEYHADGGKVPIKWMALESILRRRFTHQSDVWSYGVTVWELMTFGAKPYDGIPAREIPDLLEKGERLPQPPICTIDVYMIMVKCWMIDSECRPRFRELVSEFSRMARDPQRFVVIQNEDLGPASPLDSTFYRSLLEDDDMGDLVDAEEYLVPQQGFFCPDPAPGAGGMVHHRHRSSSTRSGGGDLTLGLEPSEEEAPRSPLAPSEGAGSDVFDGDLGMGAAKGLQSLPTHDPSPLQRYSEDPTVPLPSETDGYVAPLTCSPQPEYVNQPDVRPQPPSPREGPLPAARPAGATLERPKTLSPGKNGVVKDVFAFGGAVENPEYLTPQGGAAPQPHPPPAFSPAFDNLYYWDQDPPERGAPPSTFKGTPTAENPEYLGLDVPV

With `C=CC(=O)N1CCC12CN(c1ccc3ncnc(Nc4ccc(Oc5ccn6ncnc6c5)c(C)c4F)c3n1)C2` [Example 275], the IC50 on EGFR (EGFR enzyme assay) was 0.895 µM; at EGFR wild type (EGFR WT) (setting [2]), 0.526 µM.

For the compound `C=CS(=O)(=O)Nc1ccc2ncnc(Nc3ccc(Oc4ccc5c(c4)ncn5C)c(C)c3)c2n1` [Example 20, N-(4-((3-methyl-4-((1-methyl-1H-benzo[d]imidazol-5-yl)oxy)phenyl)amino)pyrido[3,2-d]pyrimidin-6-yl)ethenesulfonamide], the IC50 at EGFR (EGFR enzyme) turned out to be 0.34 µM; in test [1], 1.74 µM; against ErbB2 WT, 0.0479 µM.

On to `C=CC(=O)N1CCC(Oc2ccc3ncnc(Nc4ccc(Oc5cnc6cn(C)nc6c5)c(C)c4F)c3n2)CC1` [Example 58, 1-(4-((4-((2-fluoro-3-methyl-4-((2-methyl-2H-pyrazolo[4,3-b]pyridin-6-yl)oxy)phenyl)amino)pyrido[3,2-d]pyrimidin-6-yl)oxy)piperidin-1-yl)prop-2-en-1-one], for which the IC50 is at least 10 µM against EGFR (EGFR enzyme) and 2.23 µM on EGFR wild type (EGFR WT) (setting [3]).

Take `C=CC(=O)N1CCC(Oc2ccc3ncnc(Nc4ccc(Oc5ccc6sc(C)nc6c5)c(Cl)c4F)c3n2)CC1` [Example 16, 1-(4-((4-((3-chloro-2-fluoro-4-((2-methylbenzo[d]thiazol-5-yl)oxy)phenyl)amino)pyrido[3,2-d]pyrimidin-6-yl)oxy)piperidin-1-yl)prop-2-en-1-one]: the results for the IC50 against EGFR (EGFR enzyme) and at ErbB2 WT were at least 10 µM and 10 µM, respectively.

For the compound `C=CC(=O)N1C2COCC1CC(c1ccc3ncnc(Nc4ccc(Oc5ccc6c(c5)ncn6C)c(C)c4F)c3n1)C2` (centres unmarked) [Example 161, 1-(7-(4-((2-fluoro-3-methyl-4-((1-methyl-1H-benzo[d]imidazol-5-yl)oxy)phenyl)amino)pyrido[3,2-d]pyrimidin-6-yl)-3-oxa-9-azabicyclo[3.3.1]nonan-9-yl)prop-2-en-1-one], the values for the IC50 against EGFR (EGFR enzyme), at ErbB2 WT and at EGFR wild type (EGFR WT) (setting [3]) were 0.57 µM, 0.0199 µM and 0.368 µM, respectively.

For `C=CC(=O)N1C[C@H]2CC[C@@H]1[C@H](c1ccc3ncnc(Nc4cc(C)c(Oc5ccn6ncnc6c5)cc4F)c3n1)C2` [Example 395], the values for the IC50 against EGFR (EGFR enzyme assay) and against EGFR wild type (EGFR WT) (setting [2]) were at least 10 µM and at least 5 µM, respectively.

For `C=CC(=O)N1CC2(C1)CN(c1ccc3ncnc(Nc4cc(Cl)c(Oc5ccn6ncnc6c5)cc4F)c3n1)C2` [Example 342], the figures for the IC50 on EGFR (EGFR enzyme assay) and on EGFR wild type (EGFR WT) (setting [2]) were at least 10 µM and at least 5 µM, respectively.

As to `C=CC(=O)N1CCN(c2ccc3ncnc(Nc4ccc(Oc5ccn6ncnc6c5)c(C)c4F)c3n2)C[C@H]1CC` [Example 274], the IC50 was found to be 2.35 µM against EGFR (EGFR enzyme assay) and 0.681 µM at EGFR wild type (EGFR WT) (setting [2]).

On to `C=CC(=O)N1C[C@H]2CC[C@@H]1C[C@@H]2c1ccc2ncnc(Nc3cc(C)c(Oc4ccn5ncnc5c4)cc3F)c2n1` (racemic) [Example 216, rac-1-((1R,4S,5S)-5-(4-((4-([1,2,4]triazolo[1,5-a]pyridin-7-yloxy)-2-fluoro-5-methylphenyl)amino)pyrido[3,2-d]pyrimidin-6-yl)-2-azabicyclo[2.2.2]octan-2-yl)prop-2-en-1-one], for which the IC50 at EGFR (EGFR enzyme) was 5 µM; on EGFR wild type (EGFR WT) (setting [3]) it was at least 5 µM.

Consider `C=CC(=O)N1CCC(Oc2ccc3ncnc(Nc4ccc(Oc5ccc6sc(C)nc6c5)c(C)c4F)c3n2)CC1` [Example 10, 1-(4-((4-((2-fluoro-3-methyl-4-((2-methylbenzo[d]thiazol-5-yl)oxy)phenyl)amino)pyrido[3,2-d]pyrimidin-6-yl)oxy)piperidin-1-yl)prop-2-en-1-one], for which the IC50 on EGFR (EGFR enzyme) is at least 10 µM; on ErbB2 WT, 2.4 µM.

As for `C=CC(=O)N1CCC(Oc2ccc3ncnc(Nc4ccc(Oc5ccc6sc(C)nc6c5)c(C)c4)c3n2)CC1` [Example 7, 1-(4-((4-((3-methyl-4-((2-methylbenzo[d]thiazol-5-yl)oxy)phenyl)amino)pyrido[3,2-d]pyrimidin-6-yl)oxy)piperidin-1-yl)prop-2-en-1-one], the IC50 against EGFR (EGFR enzyme) is at least 10 µM; against ErbB2 WT it was 2.09 µM.

As for `C=CC(=O)N1CCN(c2ccc3ncnc(Nc4ccc(Oc5ccn6ncnc6c5)c(C)c4F)c3n2)C[C@@H]1CC` [Example 269], the IC50 against EGFR (EGFR enzyme assay) is 8.2 µM; at EGFR wild type (EGFR WT) (setting [2]), at least 5 µM.

With `C=CC(=O)N1CC[C@@H]2CN(c3ccc4ncnc(Nc5ccc(Oc6ccn7ncnc7c6)c(C)c5F)c4n3)C[C@@H]21` [Example 71, 1-((3aR,6aR)-5-(4-((4-([1,2,4]triazolo[1,5-a]pyridin-7-yloxy)-2-fluoro-3-methylphenyl)amino)pyrido[3,2-d]pyrimidin-6-yl)hexahydropyrrolo[3,4-b]pyrrol-1(2H)-yl)prop-2-en-1-one], the values for the IC50 against EGFR (EGFR enzyme) and against EGFR wild type (EGFR WT) (setting [3]) were at least 10 µM and at least 5 µM, respectively.

Turning to `C=CC(=O)N1CC[C@H]2CN(c3ccc4ncnc(Nc5ccc(Oc6ccc7c(c6)ncn7C)c(C)c5)c4n3)C[C@H]21` (racemic) [Example 104, rac-1-((3aR,6aR)-5-(4-((3-methyl-4-((1-methyl-1H-benzo[d]imidazol-5-yl)oxy)phenyl)amino)pyrido[3,2-d]pyrimidin-6-yl)hexahydropyrrolo[3,4-b]pyrrol-1(2H)-yl)prop-2-en-1-one], the IC50 was at least 10 µM at EGFR (EGFR enzyme) and at least 5 µM against EGFR wild type (EGFR WT) (setting [3]).

Consider `CC#CC(=O)N1CCN(c2ccc3ncnc(Nc4ccc(Oc5ccn6ncnc6c5)c(C)c4F)c3n2)C[C@H]1C` [Example 184, (R)-1-(4-(4-((4-([1,2,4]triazolo[1,5-a]pyridin-7-yloxy)-2-fluoro-3-methylphenyl)amino)pyrido[3,2-d]pyrimidin-6-yl)-2-methylpiperazin-1-yl)but-2-yn-1-one], for which the IC50 at EGFR (EGFR enzyme) was at least 10 µM; at EGFR wild type (EGFR WT) (setting [3]) it was at least 5 µM.

As to `C=CC(=O)N1C[C@H]2CC[C@@H]1[C@@H](c1ccc3ncnc(Nc4cc(C)c(Oc5ccn6ncnc6c5)cc4F)c3n1)C2` [Example 396], the half-maximal inhibitory concentration (IC50) is 4.06 µM at EGFR (EGFR enzyme assay) and at least 5 µM against EGFR wild type (EGFR WT) (setting [2]).

On to `C=CC(=O)N1CC[C@H]2CN(c3ccc4ncnc(Nc5ccc(Oc6ccc7c(c6)ncn7C)c(C)c5)c4n3)C[C@H]21` [Example 117, 1-((3aS,6aS)-5-(4-((3-methyl-4-((1-methyl-1H-benzo[d]imidazol-5-yl)oxy)phenyl)amino)pyrido[3,2-d]pyrimidin-6-yl)hexahydropyrrolo[3,4-b]pyrrol-1(2H)-yl)prop-2-en-1-one], for which the IC50 was at least 10 µM on EGFR (EGFR enzyme) and at least 5 µM on EGFR wild type (EGFR WT) (setting [3]).

On to `C=CC(=O)N1CC[C@@H]2CN(c3ccc4ncnc(Nc5ccc(Oc6ccc7c(c6)ncn7C)c(C)c5)c4n3)C[C@@H]21` [Example 111, 1-((3aR,6aR)-5-(4-((3-methyl-4-((1-methyl-1H-benzo[d]imidazol-5-yl)oxy)phenyl)amino)pyrido[3,2-d]pyrimidin-6-yl)hexahydropyrrolo[3,4-b]pyrrol-1(2H)-yl)prop-2-en-1-one], for which the IC50 is at least 10 µM on EGFR (EGFR enzyme) and at least 5 µM on EGFR wild type (EGFR WT) (setting [3]).

As for `C=CC(=O)N1C[C@H]2CC[C@@H]1C[C@H]2c1ccc2ncnc(Nc3cc(C)c(Oc4ccn5ncnc5c4)cc3F)c2n1` [Example 402], the figures for the IC50 on EGFR (EGFR enzyme assay) and on EGFR wild type (EGFR WT) (setting [2]) were 4.94 µM and at least 5 µM, respectively.

As to `C=CC(=O)N1CC[C@H]2CN(c3ccc4ncnc(Nc5ccc(Oc6ccn7ncnc7c6)c(C)c5F)c4n3)C[C@H]21` [Example 50, 1-((3aS,6aS)-5-(4-((4-([1,2,4]triazolo[1,5-a]pyridin-7-yloxy)-2-fluoro-3-methylphenyl)amino)pyrido[3,2-d]pyrimidin-6-yl)hexahydropyrrolo[3,4-b]pyrrol-1(2H)-yl)prop-2-en-1-one], the IC50 against EGFR (EGFR enzyme) was at least 10 µM; on EGFR wild type (EGFR WT) (setting [3]) it was 3.22 µM.

For the compound `C=CC(=O)N1[C@H](C)CN(c2ccc3ncnc(Nc4ccc(Oc5ccn6ncnc6c5)c(C)c4F)c3n2)C[C@@H]1C` [Example 264], the IC50 came to 6.67 µM against EGFR (EGFR enzyme assay) and 4.55 µM at EGFR wild type (EGFR WT) (setting [2]).
